Patent US7501383B2, “Substituted [1,2,4]triazolo[1,5-a]pyrimidines and their use for controlling harmful fungi” (BASF Aktiengesellschaft, priority 2004, dated 2009)

melting point: 193 to 194 °C
Structure (SMILES): CCCCCCc1nc2nnnc-2c(N)n1C [I-2, 5-hexyl-6-methyl-7-aminotriazolopyrimidine]
